From patent USRE50082E1, “(5,6-dihydro)pyrimido[4,5-e]indolizines” (NETHERLANDS TRANSLATIONAL RESEARCH CENTER B.V., priority 2014, dated 2024)

test system: MOLT-4 cancer cell line; assay: Cell proliferation assay, MOLT-4 cancer cell line (ATPlite); format: cell-based; conditions: Homo sapiens, MOLT-4; 72 hours incubation, ATPlite 1Step; read-out: IC50 MOLT-4 cell proliferation;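 further: luminescence read-out, percent growth versus compound-free DMSO wells as maximum growth, start-of-incubation signal separating growth from cell death, IC50 from logistic curve fit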
Experimental: 5 μL of compound solution was added and the plates were incubated for an additional 72 hours after which 25 μL of ATPlite 1Step™ (PerkinElmer, Groningen, The Netherlands) solution was added to each well. Luminescence was recorded on an Envision multimode reader. The cell signal at the start of incubation was recorded separately in order to distinguish between cell population growth and cell death. In addition, maximum growth was determined by incubation of a duplicate without compound in the presence of 0.4% DMSO. Percentage growth was used as the main y-axis signal. IC50s were fitted by non-linear regression using IDBS XLfit™5 using a 4-parameter logistic curve, yielding a maximum signal, minimum signal, hill-parameter and IC50.

COc1cc(C(=O)NCC(C)(C)O)ccc1Nc1ncc2c(n1)-n1ccc(C(=O)Nc3c(C)cccc3C)c1CC2 [Example 1, N-(2,6-dimethylphenyl)-2-[4-[(2-hydroxy-2-methyl-propyl)carbamoyl]-2-methoxy-anilino]-5,6-dihydropyrimido[4,5-e]indolizine-7-carboxamide] and COc1cc(C(=O)NC2CCN(C)CC2)ccc1Nc1ncc2c(n1)-n1ccc(C(=O)Nc3c(C)cccc3Cl)c1CC2 [Example 35, N-(2-chloro-6-methyl-phenyl)-2-[2-methoxy-4-[(1-methyl-4-piperidyl)carbamoyl]anilino]-5,6-dihydropyrimido[4,5-e]indolizine-7-carboxamide] cannot be ordered by IC50: < 50 nM for the first, < 50 nM for the second.

First: Cc1cc(N2CCN(C)CC2)ccc1Nc1ncc2c(n1)-n1ccc(C(=O)Nc3c(C)cccc3Cl)c1CC2 [Example 2, N-(2-chloro-6-methyl-phenyl)-2-[2-methyl-4-(4-methylpiperazin-1-yl)anilino]-5,6-dihydropyrimido[4,5-e]indolizine-7-carboxamide]
Second: COc1cc(N2CCN(C)CC2)ccc1Nc1ncc2c(n1)-n1ccc(C(=O)Nc3c(C)cccc3F)c1CC2 [Example 24, N-(2-fluoro-6-methyl-phenyl)-2-[2-methoxy-4-(4-methylpiperazin-1-yl)anilino]-5,6-dihydropyrimido[4,5-e]indolizine-7-carboxamide]
The IC50 of the first is lower: < 50 nM for the first, 50 to 150 nM for the second.

Compared with COc1cc(N2CCOCC2)ccc1Nc1ncc2c(n1)-n1ccc(C(=O)Nc3c(C)cccc3Br)c1CC2 [Example 3, N-(2-bromo-6-methyl-phenyl)-2-(2-methoxy-4-morpholino-anilino)-5,6-dihydropyrimido[4,5-e]indolizine-7-carboxamide], COc1cc(N2CCNCC2)ccc1Nc1ncc2c(n1)-n1ccc(C(=O)Nc3c(C)cccc3C)c1CC2 [Example 17, N-(2,6-dimethylphenyl)-2-(2-methoxy-4-piperazin-1-yl-anilino)-5,6-dihydropyrimido[4,5-e]indolizine-7-carboxamide] is lower in IC50: 50 to 150 nM for the first, < 50 nM for the second.

First: CCc1cccc(C)c1NC(=O)c1ccn2c1CCc1cnc(Nc3ccc(N4CCN(C)CC4)cc3)nc1-2 [Example 4, N-(2-ethyl-6-methyl-phenyl)-2-[4-(4-methylpiperazin-1-yl)anilino]-5,6-dihydropyrimido[4,5-e]indolizine-7-carboxamide]
Second: CCOc1cc(N2CCN(C)CC2)ccc1Nc1ncc2c(n1)-n1ccc(C(=O)Nc3c(C)cccc3CC)c1CC2 [Example 32, 2-[2-Ethoxy-4-(4-methylpiperazin-1-yl)anilino]-N-(2-ethyl-6-methyl-phenyl)-5,6-dihydropyrimido[4,5-e]indolizine-7-carboxamide]
The IC50 of the first is lower: < 50 nM for the first, 50 to 150 nM for the second. The first is the more potent here.

First: Cc1cccc(Cl)c1NC(=O)c1ccn2c1CCc1cnc(Nc3ccc(N4CCOCC4)nc3C)nc1-2 [Example 5, N-(2-chloro-6-methyl-phenyl)-2-[(2-methyl-6-morpholino-3-pyridyl)amino]-5,6-dihydropyrimido[4,5-e]indolizine-7-carboxamide]
Second: Cc1cc(N2CCOCC2)ncc1Nc1ncc2c(n1)-n1ccc(C(=O)Nc3c(C)cccc3C)c1CC2 [Example 34, N-(2,6-dimethylphenyl)-2-[(4-methyl-6-morpholino-3-pyridyl)amino]-5,6-dihydropyrimido[4,5-e]indolizine-7-carboxamide]
The IC50 of the first is lower: < 50 nM for the first, 50 to 150 nM for the second.

Cc1cccc(C)c1NC(=O)c1ccn2c1CCc1cnc(Nc3ccc(C(=O)NC4CCN(C)CC4)cc3F)nc1-2 [Example 7, N-(2,6-dimethylphenyl)-2-[2-fluoro-4-[(1-methyl-4-piperidyl)carbamoyl]anilino]-5,6-dihydropyrimido[4,5-e]indolizine-7-carboxamide] and CCOc1cc(C(=O)NC2CCN(C)CC2)ccc1Nc1ncc2c(n1)-n1ccc(C(=O)Nc3c(C)cccc3CC)c1CC2 [Example 14, 2-[2-Ethoxy-4-[(1-methyl-4-piperidyl)carbamoyl]anilino]-N-(2-ethyl-6-methyl-phenyl)-5,6-dihydropyrimido[4,5-e]indolizine-7-carboxamide] fall in the same range of IC50: 50 to 150 nM for the first, 50 to 150 nM for the second.

First: CCc1n[nH]c(CC)c1NC(=O)c1ccn2c1CCc1cnc(Nc3ccc(N4CCN(C)CC4)cc3C)nc1-2 [Example 9, N-(3,5-diethyl-1H-pyrazol-4-yl)-2-[2-methyl-4-(4-methylpiperazin-1-yl)anilino]-5,6-dihydropyrimido[4,5-e]indolizine-7-carboxamide]
Second: CCOc1cc(N2CCN(C)CC2)ccc1Nc1ncc2c(n1)-n1ccc(C(=O)Nc3c(CC)n[nH]c3CC)c1CC2 [Example 31, N-(3,5-diethyl-1H-pyrazol-4-yl)-2-[2-ethoxy-4-(4-methylpiperazin-1-yl)anilino]-5,6-dihydropyrimido[4,5-e]indolizine-7-carboxamide]
The IC50 of the first is lower: < 50 nM for the first, 50 to 150 nM for the second. The first is the more potent here.

COc1cc(N2CCN(C)CC2)ccc1Nc1ncc2c(n1)-n1ccc(C(=O)Nc3c(C)cccc3OC)c1CC2 [Example 10, N-(2-methoxy-6-methyl-phenyl)-2-[2-methoxy-4-(4-methylpiperazin-1-yl)anilino]-5,6-dihydropyrimido[4,5-e]indolizine-7-carboxamide] and COc1cc(N2CCN(C)CC2)ccc1Nc1ncc2c(n1)-n1ccc(C(=O)Nc3c(C)cccc3CO)c1CC2 [Example 23, N-[2-(hydroxymethyl)-6-methyl-phenyl]-2-[2-methoxy-4-(4-methylpiperazin-1-yl)anilino]-5,6-dihydropyrimido[4,5-e]indolizine-7-carboxamide] fall in the same range of IC50: 50 to 150 nM for the first, 50 to 150 nM for the second.

COc1cc(N2CCN(C)CC2)ccc1Nc1ncc2c(n1)-n1ccc(C(=O)Nc3c(C(C)C)cccc3C(C)C)c1CC2 [Example 11, N-(2,6-diisopropylphenyl)-2-[2-methoxy-4-(4-methylpiperazin-1-yl)anilino]-5,6-dihydropyrimido[4,5-e]indolizine-7-carboxamide] and CCc1cccc(CC)c1NC(=O)c1ccn2c1CCc1cnc(Nc3ccc(N4CCN(C)CC4)cc3OC)nc1-2 [Example 20, N-(2,6-diethylphenyl)-2-[2-methoxy-4-(4-methylpiperazin-1-yl)anilino]-5,6-dihydropyrimido[4,5-e]indolizine-7-carboxamide] fall in the same range of IC50: 50 to 150 nM for the first, 50 to 150 nM for the second.

CCc1nn(CCOC)c(CC)c1NC(=O)c1ccn2c1CCc1cnc(Nc3ccc(OC4CCN(C)CC4)cc3C)nc1-2 [Example 13, N-[3,5-diethyl-1-(2-methoxyethyl)pyrazol-4-yl]-2-[2-methyl-4-[(1-methyl-4-piperidyl)oxy]anilino]-5,6-dihydropyrimido[4,5-e]indolizine-7-carboxamide] and CCc1nn(CCOC)c(CC)c1NC(=O)c1ccn2c1CCc1cnc(Nc3ccc(N4CCNCC4)cc3OC)nc1-2 [Example 19, N-[3,5-diethyl-1-(2-methoxyethyl)pyrazol-4-yl]-2-(2-methoxy-4-piperazin-1-yl-anilino)-5,6-dihydropyrimido[4,5-e]indolizine-7-carboxamide] cannot be ordered by IC50: < 50 nM for the first, < 50 nM for the second.

COc1cc(OC2CCN(C)CC2)ccc1Nc1ncc2c(n1)-n1ccc(C(=O)Nc3c(C)n[nH]c3C)c1CC2 [Example 15, N-(3,5-dimethyl-1H-pyrazol-4-yl)-2-[2-methoxy-4-[(1-methyl-4-piperidyl)oxy]anilino]-5,6-dihydropyrimido[4,5-e]indolizine-7-carboxamide] and COc1cc(N2CCN(C)CC2)ccc1Nc1ncc2c(n1)-n1ccc(C(=O)Nc3c(C)n[nH]c3C)c1CC2 [Example 27, N-(3,5-dimethyl-1H-pyrazol-4-yl)-2-[2-methoxy-4-(4-methylpiperazin-1-yl)anilino]-5,6-dihydropyrimido[4,5-e]indolizine-7-carboxamide] fall in the same range of IC50: 50 to 150 nM for the first, 50 to 150 nM for the second.

COCCn1nc(C)c(NC(=O)c2ccn3c2CCc2cnc(Nc4ccc(N5CCNCC5)cc4OC)nc2-3)c1C [Example 16, N-[1-(2-methoxyethyl)-3,5-dimethyl-pyrazol-4-yl]-2-(2-methoxy-4-piperazin-1-yl-anilino)-5,6-dihydropyrimido[4,5-e]indolizine-7-carboxamide] and COCCn1nc(C)c(NC(=O)c2ccn3c2CCc2cnc(Nc4ccc(N5CCN(C)CC5)cc4OC)nc2-3)c1C [Example 26, N-[1-(2-methoxyethyl)-3,5-dimethyl-pyrazol-4-yl]-2-[2-methoxy-4-(4-methylpiperazin-1-yl)anilino]-5,6-dihydropyrimido[4,5-e]indolizine-7-carboxamide] fall in the same range of IC50: 50 to 150 nM for the first, 50 to 150 nM for the second.

Compared with CCc1n[nH]c(CC)c1NC(=O)c1ccn2c1CCc1cnc(Nc3ccc(N4CCNCC4)cc3OC)nc1-2 [Example 18, N-(3,5-diethyl-1H-pyrazol-4-yl)-2-(2-methoxy-4-piperazin-1-ylanilino)-5,6-dihydropyrimido[4,5-e]indolizine-7-carboxamide], COc1cc(N2CCN(C)CC2)ccc1Nc1ncc2c(n1)-n1ccc(C(=O)Nc3c(C)nn(C)c3Cl)c1CC2 [Example 28, N-(5-chloro-1,3-dimethyl-pyrazol-4-yl)-2-[2-methoxy-4-(4-methylpiperazin-1-yl)anilino]-5,6-dihydropyrimido[4,5-e]indolizine-7-carboxamide] is higher in IC50: < 50 nM for the first, 50 to 150 nM for the second. The first is the more potent here.

First: COc1cc(N2CCN(C)CC2)ccc1Nc1ncc2c(n1)-n1ccc(C(=O)Nc3c(C)cc(C)cc3C)c1CC2 [Example 22, 2-[2-Methoxy-4-(4-methylpiperazin-1-yl)anilino]-N-(2,4,6-trimethylphenyl)-5,6-dihydropyrimido[4,5-e]indolizine-7-carboxamide]
Second: COc1cc(N2CCN(C)CC2)ccc1Nc1ncc2c(n1)-n1ccc(C(=O)Nc3c(C)ccnc3Cl)c1CC2 [Example 25, N-(2-chloro-4-methyl-3-pyridyl)-2-[2-methoxy-4-(4-methylpiperazin-1-yl)anilino]-5,6-dihydropyrimido[4,5-e]indolizine-7-carboxamide]
The IC50 of the first is lower: < 50 nM for the first, 50 to 150 nM for the second. The first is the more potent here.

CCc1ccccc1NC(=O)c1ccn2c1CCc1cnc(Nc3ccc(N4CCN(C)CC4)cc3OC)nc1-2 [Example 29, N-(2-ethylphenyl)-2-[2-methoxy-4-(4-methylpiperazin-1-yl)anilino]-5,6-dihydropyrimido[4,5-e]indolizine-7-carboxamide] and CCc1cccc(CC)c1NC(=O)c1ccn2c1CCc1cnc(Nc3ccc(C(=O)NC4CCN(C)CC4)cc3C)nc1-2 [Example 36, N-(2,6-diethylphenyl)-2-[2-methyl-4-[(1-methyl-4-piperidyl)carbamoyl]anilino]-5,6-dihydropyrimido[4,5-e]indolizine-7-carboxamide] fall in the same range of IC50: 50 to 150 nM for the first, 50 to 150 nM for the second.
